Like-named read-outs stand apart in the source and are kept apart here.
What was measured:
HRV3C = HRV3C (Human rhinovirus 14, UniProt P03303); assay: HRV3C protease assay (duplex, SAMDI-MS); format: biochemical, HRV; conditions: 30 mins preincubation
Procedure: Protease assays were performed in 384-well low volume polypropylene microtiter plates at ambient temperature. For the duplex assay, 3CLpro and HRV3C was added using a Multidrop Combi (Thermo Scientific; Waltham, MA) and preincubated for 30 mins with small molecules. The reactions were initiated by the addition of the two peptide substrates. The reactions were incubated for 30 mins and quenched by the addition of 0.5% formic acid (final) with subsequent neutralization using 1% sodium bicarbonate (final). Internal standard peptides were added in 20 mM Hepes pH 8.0 for quantitation of the protease products. For SAMDI-MS analysis, 2 μL of each reaction mixture was transferred using a 384-channel automated liquid handler to SAMDI biochip arrays functionalized with a neutravidin-presenting self-assembled monolayer. The SAMDI arrays were incubated for 1 h in a humidified chamber to allow the specific immobilization of the biotinylated peptide substrates, cleaved products and internal standards. The samples were purified by washing the SAMDI arrays with deionized ultrafiltered water and dried with compressed air. A matrix comprising alpha-cyano cinnamic acid in 80% acetonitrile:20% aqueous ammonium citrate was applied in an automated format by dispensing 50 nL to each spot in the array. SAMDI-MS was performed using reflector-positive mode on an AB Sciex TOF-TOF 5800 System (AB Sciex, Framingham, MA) with 400 shots/spot analyzed in a random raster sampling. For data analysis, area under the curves (peaks) (AUCs) for the product and internal standard were calculated using the TOF/TOF Series Explorer (AB Sciex), and the amount of product formed was calculated using the equation (AUC product/AUC internal standard). The amount of product generated was calculated using the ratio of product area under the curve (AUC) divided by the AUC of the internal standard. Negative controls were pre-quenched with 0.5% formic acid final. Assay robustness was determined by Z-Factor. The IC50s were determined by fitting the curves using a four-parameter equation in Graphpad Prism 8.

3CLpro = 3CLpro (Severe acute respiratory syndrome coronavirus 2, UniProt P0DTD1); assay: SARS-CoV-2 3CLpro protease assay (duplex, SAMDI-MS); format: biochemical; design: For the duplex assay, 3CLpro and HRV3C was added; conditions: 3CLpro, 30 mins preincubation, class symbols; read-out: SARS-Cov-2 IC50
human cathepsin L = biological target: T1, human cathepsin L (Homo sapiens, UniProt P07711); assay: cathepsin L assay; format: biochemical; conditions: 10 pM human cathepsin L, Z-FR-AMC 2 μM, class symbols
T1 construct: purchased R&D Systems
Procedure: For the cathepsin L assay, 10 pM of human cathepsin L (R&D Systems; Minneapolis, MN) was preincubated for 30 mins with test compounds. Reactions were initiated by the addition of a peptide substrate Z-FR-AMC (final concentration 2 μM, Anaspec; Fremont, CA). Fluorescence was measured at 2-minute intervals for 30 mins using a 355/460 excitation/emission filter module on an Envision plate reader (Perkin Elmer; Waltham, MA). The IC50 values were calculated for each assay by fitting the curves using a four-parameter equation in GraphPad Prism.

[1] = Cytotoxicity plates without OC43 virus (cell-titer-glo); format: cell-based, human; conditions: human; HeLa cells without OC43 virus, class symbols
Procedure: The human beta-coronavirus OC43 was purchased from ATCC (Manassas, VA) and propagated using HCT-8 human colorectal epithelial cells (ATCC). HeLa human cervical epithelial cells (ATCC) were used as susceptible host cell lines and were cultured using EMEM media, supplemented with 10% fetal bovine serum (FBS), 1% (v/v) penicillin/streptomycin (P/S), 1% (v/v) HEPES and 1% (v/v) Cellgro Glutagro™ supplement (all Corning, Manassas, VA) at 37° C. For the OC43 antiviral assay, 1.5×10^4 HeLa cells per well were plated in 100 μL complete media in white 96-well plates with clear bottoms at 37° C. for up to 24 h to facilitate attachment and allow cells to recover from seeding stresses. Next day, the cell culture medium was removed. Serially diluted compounds in 100 μL assay media (EMEM, 2% FBS, 1% P/S, 1% Cellgro Glutagro™ supplement, 1% HEPES) were added to the cells and incubated for 4H at 37° C. in a humidified 5% CO2 incubator. 100 μL of OC43 virus stock was diluted to a concentration known to produce optimal cytopathic effect, inducing 80-90% reduction in cell viability. 96-well plates were incubated for 6 (HeLa) days at 33° C.; each plate contains uninfected control wells as well as virus-infected wells that were not treated with compound. Cytotoxicity plates without the addition of OC43 virus were carried out in parallel. At the end of the incubation period, 100 μL cell culture supernatant was replaced with 100 μL cell-titer-glo reagent (Promega, Madison, WI) and incubated for at least 10 min at rt prior to measuring luminescence. Luminescence was measured on a Perkin Elmer (Waltham, MA) Envision plate reader. Antiviral % inhibition was calculated as follows: [(Compound treated cells infected sample)−(no compound infected control)]/[(Uninfected control)−(no compound infected control)]*100; Using GraphPad (San Diego, CA) prism software version 8.3.1, the antiviral dose-response plot was generated as a sigmoidal fit, log(inhibitor) vs response-variable slope (four parameters) model and the EC50 was calculated which is the predicted compound concentration corresponding to a 50% inhibition of the viral cytopathic effect.

[2] = test system: human beta-coronavirus OC43; assay: microbe, parasite or virus in culture; format: cell-based; conditions: Betacoronavirus 1, OC43, HeLa, 144 h, OC43 in HeLa cells, 6 days at 33° C., read-out: EC50
[3] = test system: SARS-CoV-2-GHB-03021/2020; assay: microbe, parasite or virus in culture; format: cell-based; conditions: Severe acute respiratory syndrome coronavirus 2, Vero C1008, 96 h; read-out: VeroE6 + CP (EC50)
[4] = HRV3C, bound, read-out: HRV IC50
[5] = HRV3C, class symbols, read-out: HRV IC50

COc1cccc2[nH]c(C(=O)N3C[C@H]4CCCC[C@H]4[C@@H]3C(=O)N[C@@H](C[C@@H]3CCCNC3=O)C(=O)COCc3ccccc3)cc12 (single isomer, unassigned) [Compound 59A_2]
IC50 (HRV3C; [4]): > 10 µM | IC50 (3CLpro): 0.2 to 2 µM | IC50 (human cathepsin L): ≥ 10 µM | CC50 at 6 days [1]: > 10 µM | EC50 ([2]; class symbols): 1 to 10 µM

C=CC[C@@H]1C[C@@H](C(=O)N[C@@H](C[C@@H]2CCNC2=O)C(=O)C(=O)NCc2ccccc2)N(C(=O)c2cc3ccccc3[nH]2)C1 [Compound 21]
IC50 (HRV3C; HRV IC50, HRV3C, class symbols): 2 to 20 µM | IC50 (3CLpro): 0.2 to 2 µM | CC50 at 6 days [1]: > 10 µM | EC50 ([2]; class symbols): 0.1 to 1 µM | EC50 [3]: 10 to 100 µM

COc1cccc2[nH]c(C(=O)N3C[C@@H]4CCCC[C@@H]4[C@H]3C(=O)N[C@@H](C[C@@H]3CCCNC3=O)C(=O)CO)cc12 [Compound 59_1, (1S,3aR,7aS)—N—((S)-4-hydroxy-3-oxo-1-((S)-2-oxopiperidin-3-yl)butan-2-yl)-2-(4-methoxy-1H-indole-2-carbonyl)octahydro-1H-isoindole-1-carboxamide]
IC50 (HRV3C; [5]): 2 to 20 µM | IC50 (3CLpro): < 0.02 µM | IC50 (human cathepsin L): ≥ 10 µM | CC50 at 6 days [1]: > 10 µM | EC50 ([2]; class symbols): 0.1 to 1 µM

COc1cccc2[nH]c(C(=O)N3C[C@H]4CCCC[C@H]4[C@@H]3C(=O)N[C@@H](C[C@@H]3CCCNC3=O)C(=O)CO)cc12 [Compound 59_2, (1R,3aS,7aR)—N—((S)-4-hydroxy-3-oxo-1-((S)-2-oxopiperidin-3-yl)butan-2-yl)-2-(4-methoxy-1H-indole-2-carbonyl)octahydro-1H-isoindole-1-carboxamide]
IC50 (HRV3C; [4]): > 10 µM | IC50 (3CLpro): 0.2 to 2 µM | IC50 (human cathepsin L): ≥ 10 µM | CC50 at 6 days [1]: > 10 µM | EC50 ([2]; class symbols): 1 to 10 µM

COc1cccc2[nH]c(C(=O)N3CC4(C5CC5)CC3(C(=O)N[C@@H](C[C@@H]3CCNC3=O)C(=O)C(=O)NC3CC3)C4)cc12 [Compound 131]
IC50 (HRV3C; [5]): 0.02 to 0.2 µM | IC50 (3CLpro): 0.02 to 0.2 µM | IC50 (human cathepsin L): ≥ 10 µM | CC50 at 6 days [1]: > 10 µM | EC50 ([2]; bound): > 10 µM

N#C[C@H](C[C@@H]1CCNC1=O)NC(=O)[C@@H]1[C@H]2CCC[C@H]2CN1C(=O)c1cc2c(Cl)ccc(C(F)(F)F)c2[nH]1 [Compound 175]
IC50 (HRV3C; [4]): > 10 µM | IC50 (3CLpro): 0.2 to 2 µM | IC50 (human cathepsin L): ≥ 10 µM | CC50 at 6 days [1]: > 10 µM | EC50 ([2]; class symbols): 1 to 10 µM

COc1ccc(Cl)c2cc(C(=O)N3C[C@@H]4CCC[C@@H]4[C@H]3C(=O)N[C@@H](C[C@@H]3CCNC3=O)C(=O)CO)[nH]c12 [Compound 176]
IC50 (HRV3C; [4]): > 10 µM | IC50 (3CLpro): 0.02 to 0.2 µM | IC50 (human cathepsin L): ≥ 10 µM | CC50 at 6 days [1]: > 10 µM | EC50 ([2]; class symbols): 0.1 to 1 µM

C#C[C@H](C[C@@H]1CCNC1=O)NC(=O)[C@@H]1[C@H]2CCC[C@H]2CN1C(=O)c1cc2c(Cl)ccc(Cl)c2[nH]1 [Compound 177, (1S,3aR,6aS)-2-(4,7-dichloro-1H-indole-2-carbonyl)-N-[(2S)-1-[(3S)-2-oxopyrrolidin-3-yl]but-3-yn-2-yl]-hexahydro-1H-cyclopenta[c]pyrrole-1-carboxamide]
IC50 (HRV3C; [4]): > 10 µM | IC50 (3CLpro): 2 to 20 µM | IC50 (human cathepsin L): ≥ 10 µM | CC50 at 6 days [1]: > 10 µM | EC50 ([2]; bound): > 10 µM

COc1cc(F)c(F)c2[nH]c(C(=O)N3C[C@@H]4CCC[C@@H]4[C@H]3C(=O)N[C@@H](C[C@@H]3CCNC3=O)C(=O)CO)cc12 [Compound 184, (1S,3aR,6aS)-2-(6,7-difluoro-4-methoxy-1H-indole-2-carbonyl)-N-[(2S)-4-hydroxy-3-oxo-1-[(3S)-2-oxopyrrolidin-3-yl]butan-2-yl]-hexahydro-1H-cyclopenta[c]pyrrole-1-carboxamide]
IC50 (HRV3C; [5]): 2 to 20 µM | IC50 (3CLpro): < 0.02 µM | IC50 (human cathepsin L): ≥ 10 µM

N#C[C@H](C[C@@H]1CCNC1=O)NC(=O)[C@@H]1[C@H]2CCC[C@H]2CN1C(=O)c1cc2c(OC3CC3)cc(Cl)cc2[nH]1 [Compound 185, (1S,3aR,6aS)-2-(6-chloro-4-cyclopropoxy-1H-indole-2-carbonyl)-N-[(1S)-1-cyano-2-[(3S)-2-oxopyrrolidin-3-yl]ethyl]-hexahydro-1H-cyclopenta[c]pyrrole-1-carboxamide]
IC50 (HRV3C; [4]): > 10 µM | IC50 (3CLpro): 0.2 to 2 µM | IC50 (human cathepsin L): ≥ 10 µM

N#C[C@H](C[C@@H]1CCNC1=O)NC(=O)[C@@H]1[C@H]2CCC[C@H]2CN1C(=O)c1nc2c(Cl)ccc(Cl)c2[nH]1 [Compound 186]
IC50 (HRV3C; [4]): > 10 µM | IC50 (3CLpro): 0.2 to 2 µM | IC50 (human cathepsin L): ≥ 10 µM

N#C[C@H](C[C@@H]1CCNC1=O)NC(=O)[C@@H]1[C@H]2CCC[C@H]2CN1C(=O)c1cc2c(Cl)cc(F)cc2[nH]1 [Compound 187]
IC50 (HRV3C; [4]): > 10 µM | IC50 (3CLpro): 0.2 to 2 µM | IC50 (human cathepsin L): ≥ 10 µM

N#C[C@H](C[C@@H]1CCNC1=O)NC(=O)[C@@H]1[C@H]2CCC[C@H]2CN1C(=O)c1cc2c(Cl)cc(Cl)cc2[nH]1 [Compound 188]
IC50 (HRV3C; [4]): > 10 µM | IC50 (3CLpro): 0.2 to 2 µM | IC50 (human cathepsin L): ≥ 10 µM

COc1ccc(F)c2[nH]c(C(=O)N3C[C@@H]4CCC[C@@H]4[C@H]3C(=O)N[C@H](C#N)C[C@@H]3CCNC3=O)cc12 [Compound 189]
IC50 (HRV3C; [4]): > 10 µM | IC50 (3CLpro): 0.2 to 2 µM | IC50 (human cathepsin L): ≥ 10 µM

N#C[C@H](C[C@@H]1CCNC1=O)NC(=O)[C@@H]1[C@H]2CCC[C@H]2CN1C(=O)c1cc2c(OC(F)F)cccc2[nH]1 [Compound 190]
IC50 (HRV3C; [4]): > 10 µM | IC50 (3CLpro): 0.2 to 2 µM | IC50 (human cathepsin L): ≥ 10 µM

COc1nccc2[nH]c(C(=O)N3C[C@@H]4CCC[C@@H]4[C@H]3C(=O)N[C@H](C#N)C[C@@H]3CCNC3=O)cc12 [Compound 191]
IC50 (HRV3C; [4]): > 10 µM | IC50 (3CLpro): 0.2 to 2 µM | IC50 (human cathepsin L): ≥ 10 µM

COc1cc(Cl)cc2[nH]c(C(=O)N3C[C@@H]4CCC[C@@H]4[C@H]3C(=O)N[C@H](C#N)C[C@@H]3CCNC3=O)cc12 [Compound 192]
IC50 (HRV3C; [4]): > 10 µM | IC50 (3CLpro): 0.2 to 2 µM | IC50 (human cathepsin L): ≥ 10 µM

CCOC(=O)c1cc(C(=O)N2C[C@@H]3CCC[C@@H]3[C@H]2C(=O)N[C@H](C#N)C[C@@H]2CCNC2=O)[nH]c1C [Compound 193]
IC50 (HRV3C; [4]): > 10 µM | IC50 (3CLpro): 0.2 to 2 µM | IC50 (human cathepsin L): ≥ 10 µM

Reference: patent publication US11952365B2, “Anti-viral compounds” (Aligos Therapeutics, Inc., priority 2020, dated 2024)
